According to the NIST ThermoML archive (doi:10.1021/je9004849):

Settings: Fluid (supercritical or subcritical phases), Buoyancy - hydrostatic balance with magnetic suspension - one sinker

C [methane]
Settings | mass density [kg/m3]
298.14 K, 20012 kPa | 157.172
298.14 K, 29958 kPa | 212.508
298.14 K, 35056 kPa | 232.422
298.14 K, 49959 kPa | 273.189
298.14 K, 99874 kPa | 342.269
298.14 K, 124934 kPa | 363.139
298.14 K, 150062 kPa | 380.039
298.14 K, 159617 kPa | 385.731
298.14 K, 170054 kPa | 391.531
298.14 K, 185333 kPa | 399.489
298.14 K, 186931 kPa | 400.257
298.14 K, 188059 kPa | 400.837
298.15 K, 10010 kPa | 76.08
298.15 K, 79980 kPa | 321.098
298.16 K, 1012 kPa | 6.665
298.16 K, 66961 kPa | 303.605
298.19 K, 5009 kPa | 35.316
298.25 K, 14994 kPa | 118.506
305.23 K, 9993 kPa | 72.932
305.23 K, 49968 kPa | 267.232
305.23 K, 60012 kPa | 287.019
305.23 K, 79855 kPa | 316.163
305.23 K, 99904 kPa | 337.939
305.23 K, 124930 kPa | 359.159
305.23 K, 149862 kPa | 376.248
305.24 K, 1002 kPa | 6.404
305.24 K, 2000 kPa | 13.031
305.24 K, 5001 kPa | 34.173
305.24 K, 6897 kPa | 48.435
305.24 K, 15006 kPa | 113.44
305.24 K, 20696 kPa | 155.024
305.24 K, 29976 kPa | 205.443
305.24 K, 34563 kPa | 223.779
305.24 K, 69988 kPa | 302.917
338.04 K, 6905 kPa | 42.093
338.05 K, 5000 kPa | 29.983
338.05 K, 34473 kPa | 195.446
338.06 K, 70001 kPa | 280.639
338.07 K, 124895 kPa | 341.685
338.07 K, 149542 kPa | 359.787
338.08 K, 1004 kPa | 5.782
338.08 K, 2004 kPa | 11.667
338.08 K, 15026 kPa | 95.246
338.08 K, 20687 kPa | 130.132
338.08 K, 30005 kPa | 177.38
338.08 K, 50031 kPa | 241.969
338.08 K, 59971 kPa | 263.229
338.09 K, 164905 kPa | 369.665
338.1 K, 9969 kPa | 62.054
338.1 K, 80310 kPa | 295.61
338.11 K, 99908 kPa | 318.744
338.12 K, 179829 kPa | 378.164
399.94 K, 89964 kPa | 274.637
399.97 K, 59973 kPa | 225.951
399.98 K, 1002 kPa | 4.86
399.98 K, 30014 kPa | 141.158
399.99 K, 15027 kPa | 74.789
400 K, 50037 kPa | 203.469
400 K, 79920 kPa | 260.652
400.01 K, 2001 kPa | 9.744
400.01 K, 6915 kPa | 34.195
400.01 K, 10002 kPa | 49.746
400.02 K, 20675 kPa | 101.642
400.02 K, 124882 kPa | 312.062
400.02 K, 149627 kPa | 332.136
400.03 K, 13795 kPa | 68.723
400.04 K, 34510 kPa | 157.64
400.04 K, 69978 kPa | 244.725
400.07 K, 5005 kPa | 24.61
400.09 K, 99984 kPa | 286.8
450 K, 2009 kPa | 8.61
450.01 K, 20697 kPa | 87.478
450.01 K, 99932 kPa | 264.608
450.02 K, 89981 kPa | 251.923
450.02 K, 119918 kPa | 286.376
450.03 K, 59975 kPa | 202.137
450.03 K, 139476 kPa | 304.187
450.05 K, 30002 kPa | 121.791
450.06 K, 50036 kPa | 179.955
450.06 K, 69966 kPa | 221.073
450.08 K, 80008 kPa | 237.571
450.09 K, 6886 kPa | 29.741
450.12 K, 34492 kPa | 136.647
